Test results taken from US20240245641A1, “PHARMACEUTICAL COMPOSITION FOR PREVENTING OR TREATING DIABETES MELLITUS IN ANIMAL OF FAMILY CANIDAE, COMPRISING ENAVOGLIFLOZIN” (DAEWOONG PHARMACEUTICAL CO., LTD., priority 2021, published 2024).

Tests used:
[1] = tested on: dogs with insulin-dependent diabetes mellitus (type 1 diabetes mellitus); experiment: Evaluation of renal function (blood and urine tests) after administration of enavogliflozin; type: in vivo, dog; conditions: after 8 weeks treatment, mean ± S.D
Method: (§1) This study evaluated the safety and efficacy of enavogliflozin along with insulin therapy in dogs with insulin-dependent diabetes mellitus (type 1 diabetes mellitus) as a prospective, open-label, non-randomized, multicenter, and proof-of-concept study. The efficacy and safety of enavogliflozin were evaluated at predetermined times during the treatment period.
(§2) Diabetic dogs meeting the following criteria were allowed to participate in a clinical trial: Small dogs under 15 years of age (less than 10 kg), medium-sized dogs under 13 years of age (11 to 22 kg), stable basal dose insulin therapy at least 1 month prior to the screening visit, post-insulin nadir (Nadir) blood glucose minimum of 200 mg/dl, and blood ketone levels less than 0.6 mmol/L.
(§3) However, diabetic dogs meeting the following criteria were excluded: Dogs with chronic kidney disease (CKD IRIS stage >2), hypotension evaluation, administration of diuretics or related drugs, confirmed pregnancy, and taking drugs affecting the test within 14 days prior to test start.
(§4) The study was performed for 8 weeks, and dogs participating in the clinical trial were divided into two groups, a TOD test group and a SID test group, according to the dose of enavogliflozin administered. Enavogliflozin was administered to the TOD test group and the SID test group at a dose of 0.025 mg/kg once every 3 days and once a day, respectively. For proper evaluation, the dogs were administered the drug with breakfast, and after dosing was completed, dogs underwent physical examinations such as blood pressure, blood tests and urine tests. Thereafter, researchers adjusted insulin doses to meet target blood glucose levels during monitoring (Nadir glucose levels, 80 to 150 mg/dl).
(§5) A primary evaluation variable was whether blood fructosamine levels decreased without developing severe hypoglycemia or diabetic ketoacidosis (DKA) after the animals were randomly divided into groups. A secondary evaluation variable was a change in fasting blood glucose levels, body weight and a mean bolus dose of insulin from baseline to 8 weeks. […] The diagnosis of diabetic ketoacidosis was evaluated based on the presence of anion-gap metabolic acidosis associated with excessive ketogenesis without other causes. Safety information including data on clinical and laboratory values and side effects was collected at each study visit.
(§6) Differences before and after drug administration within the groups were compared using the Student paired t-test or the Wilcoxon rank test. Furthermore, differences between groups after drug administration through a mixed ANOVA test were confirmed. Statistical analysis was performed with the R programming language (https://cran.r-project.org/) and GraphPad Prism version 7 (GraphPad Software, Inc., La Jolla, California). A p-value less than 0.05 was considered statistically significant.
Changes in renal function before and after administration of enavogliflozin were confirmed through blood and urine tests. Blood test items include blood urea nitrogen (BUN), creatinine, symmetric di-methyl-arginine (SDMA), cystatin-C, beta-2-microglobulin (B2M) and N-acetyl-β-d-glucosaminidase (NAG). Urinalysis items include urine specific gravity (USG) and urine protein to creatinine (UPC) ratio.

[2] = tested on: dogs with insulin-dependent diabetes mellitus (type 1 diabetes mellitus); experiment: Evaluation of regulation of blood glucose after 8 weeks of enavogliflozin with insulin; type: in vivo, dog
Method: as §1, §2, §3, §4, §5, §6
The regulation of blood glucose before and after administration was confirmed through blood tests (fructosamine and fasting glucose) and the daily insulin dose. […] However, fructosamine concentration was improved (p=0.041). […] In addition, as a result of comparing the difference between the test groups at 8 weeks, there was no significant difference in fasting blood glucose, fructosamine, and insulin reduction rate. However, there was a tendency towards a decrease in the SID test group taking enavogliflozin once a day compared to the TOD test group taking enavogliflozin once every 3 days (FIGS. 2A to 2C).

[3] = tested on: dogs with insulin-dependent diabetes mellitus (type 1 diabetes mellitus); experiment: Evaluation of metabolic acidosis after administration of enavogliflozin; type: in vivo, dog; conditions: for Anion Gap / HCO3 / Ketone (blood) / LDH / pH (venous blood gas): after 8 weeks treatment, mean ± S.D
Method: as §1, §2, §3, §4, §5, §6
In addition, when lactate dehydrogenase (LDH) was measured, there was no significant change in both test groups compared to before administration. Blood pH, bicarbonate (HCO3), and the anion gap were confirmed by a venous blood gas test, and there was no significant difference before and after administration (Table 4). […] In Table 4, all values are expressed as mean±S.D, and p-values less than 0.05 were considered statistically significant.

[4] = tested on: dogs with insulin-dependent diabetes mellitus (type 1 diabetes mellitus); experiment: Evaluation of body weight and blood pressure after administration of enavogliflozin; type: in vivo, dog
Method: as §1, §2, §3, §4
(§7) A primary evaluation variable was whether blood fructosamine levels decreased without developing severe hypoglycemia or diabetic ketoacidosis (DKA) after the animals were randomly divided into groups. […] The diagnosis of diabetic ketoacidosis was evaluated based on the presence of anion-gap metabolic acidosis associated with excessive ketogenesis without other causes. […]

[5] = tested on: dogs with insulin-dependent diabetes mellitus (type 1 diabetes mellitus); experiment: Evaluation of side effects after administration of enavogliflozin with insulin (disease activity index, cystitis, hypoglycemia); type: in vivo, dog
Method: as §1, §2, §3, §4, §7

[6] = tested on: dogs with insulin-dependent diabetes mellitus (type 1 diabetes mellitus); experiment: Long-term effectiveness, enavogliflozin with insulin for up to 6 months; type: in vivo, dog
Method: In addition, long-term effectiveness was confirmed by additionally administering enavogliflozin to the companion dogs participating in the clinical trial at the same usage and dosage (SID or TOD) for up to 6 months.
as §6
Furthermore, as a result of confirming the long-term effectiveness by administering enavogliflozin at the same usage and dose for up to 6 months, fasting blood glucose, fructosamine and insulin reduction rate were improved in all SID/TOD test groups.

[7] = tested on: dogs with insulin-dependent diabetes mellitus (type 1 diabetes mellitus); experiment: Evaluation of lipid metabolism after administration of enavogliflozin; type: in vivo, dog; conditions: after 8 weeks treatment, mean ± S.D
Method: as §1, §2, §3, §4, §5, §6
Blood cholesterol was measured to confirm the effect of enavogliflozin on lipid metabolism. Changes in triglycerides and total cholesterol (T-Chol) were not statistically significant. […] In Table 5, all values are expressed as mean±S.D, and p-values less than 0.05 were considered statistically significant.

human SGLT2 = target: T1, human SGLT2 (Homo sapiens, UniProt P31639); conditions: disclosed in U.S. Patent Publication No. 2015/0152075; cited from earlier work
T1 sequence (P31639 1-672): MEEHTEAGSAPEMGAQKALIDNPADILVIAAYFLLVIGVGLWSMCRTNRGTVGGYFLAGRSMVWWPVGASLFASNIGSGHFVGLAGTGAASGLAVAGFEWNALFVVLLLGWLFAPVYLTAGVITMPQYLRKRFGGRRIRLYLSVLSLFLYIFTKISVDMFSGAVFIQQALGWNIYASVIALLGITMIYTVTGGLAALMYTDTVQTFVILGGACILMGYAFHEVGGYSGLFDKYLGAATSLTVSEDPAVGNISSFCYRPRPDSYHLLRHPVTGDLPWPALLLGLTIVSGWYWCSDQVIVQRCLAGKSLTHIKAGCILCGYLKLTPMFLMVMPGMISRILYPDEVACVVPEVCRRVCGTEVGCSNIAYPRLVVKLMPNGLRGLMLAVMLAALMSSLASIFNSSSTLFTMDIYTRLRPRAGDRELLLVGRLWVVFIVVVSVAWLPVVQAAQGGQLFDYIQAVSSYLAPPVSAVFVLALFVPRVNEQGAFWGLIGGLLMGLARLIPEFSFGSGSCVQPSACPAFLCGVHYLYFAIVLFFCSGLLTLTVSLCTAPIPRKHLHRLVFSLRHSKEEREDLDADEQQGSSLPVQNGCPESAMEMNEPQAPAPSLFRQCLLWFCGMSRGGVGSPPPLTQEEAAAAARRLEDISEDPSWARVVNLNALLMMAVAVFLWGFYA

[8] = SID test group, 0.025 mg/kg once a day with insulin
[9] = TOD test group, 0.025 mg/kg once every 3 days with insulin
[10] = TOD test group, 0.025 mg/kg once every 3 days with insulin, 8 weeks
[11] = both groups (TOD and SID), 0.025 mg/kg with insulin, 8 weeks
[12] = SID administration group, 0.025 mg/kg once a day with insulin, up to 6 months (p<0.0234)

## OC[C@H]1O[C@@H](c2cc(Cc3ccc(C4CC4)cc3)c(Cl)c3c2CCO3)[C@H](O)[C@@H](O)[C@@H]1O [enavogliflozin]
[1]; SID test group (n = 8), 0.025 mg/kg once a day with insulin
  BUN: 21.9 ± 6.8 mg/dL
[1]; [8]
  Creatinine: 0.6 ± 0.1 mg/dL
  Cystatin-C: 0.5 ± 0.1 mg/L
  NAG: 9.0±4.3 U/g
  SDMA: 7.8 ± 1.4 µg/dL
  UPC (urine protein to creatinine ratio): 1.1±1.6
  USG (urine specific gravity): 1.043±0.008
[1]; TOD test group (n = 10), 0.025 mg/kg once every 3 days with insulin
  BUN: 22.5 ± 11.7 mg/dL
[1]; [9]
  Creatinine: 0.9 ± 0.2 mg/dL
  Cystatin-C: 0.5 ± 0.2 mg/L
  NAG: 7.6±5.8 U/g
  SDMA: 9.2 ± 5.5 µg/dL
  UPC (urine protein to creatinine ratio): 1.1±1.8
  USG (urine specific gravity): 1.034±0.011
[2]; SID test group, 0.025 mg/kg once a day with insulin, after 8 weeks (before: 2.0±0.8)
  daily insulin dose: 1.5±0.5 units/kg/day
[2]; SID test group, 0.025 mg/kg once a day with insulin, after 8 weeks (before: 330.8±118.0; p=0.0078)
  fasting blood glucose: 215.5 ± 126.2 mg/dL
[2]; SID test group, 0.025 mg/kg once a day with insulin, after 8 weeks (before: 475.3±107.6; p=0.034)
  fructosamine levels: 393.1 ± 122.9 µmol/L
[2]; [10]
  daily insulin dose, change before/after administration: decreased, but the difference was not statistically significant
  fasting blood glucose, change before/after administration: decreased, but the difference was not statistically significant
[2]; TOD test group, 0.025 mg/kg once every 3 days with insulin, 8 weeks (p=0.041)
  fructosamine concentration, change before/after administration: improved
[3]; [8]
  Anion Gap: 13.2 ± 4.5 mmol/L
  HCO3: 25.0 ± 2.5 mmol/L
  Ketone (blood): 0.4 ± 0.1 mmol/L
  LDH: 230.8 ± 79.6 U/L
  pH (venous blood gas): 7.4 ± 0.1
[3]; [9]
  Anion Gap: 12.0 ± 4.2 mmol/L
  HCO3: 24.3 ± 3.6 mmol/L
  Ketone (blood): 0.2 ± 0.1 mmol/L
  LDH: 444.5 ± 584.7 U/L
  pH (venous blood gas): 7.4 ± 0.1
[3]; both test groups, eight weeks after administration
  diabetic ketoacidosis: did not occur
[4]; SID test group, 0.025 mg/kg once a day with insulin, 8 weeks (p=0.033)
  Blood pressure (systolic), change after administration: significantly reduced
[4]; [11]
  BCS (body condition score), change after administration: no difference
  Body weight, change after administration: tended to decrease
[5]; any test group (TOD, SID), 8 weeks
  new cases of bacterial cystitis: no new cases
[5]; dog, in vivo
  disease activity index (appetite, activity, stool status): no difference between before and after administration
  severe hypoglycemia leading to loss of consciousness or seizures: no severe hypoglycemia
[6]; [12]
  fasting blood glucose, 6 months: statistically significant reduction
  insulin reduction rate, 6 months: statistically significant reduction
[6]; TOD test group, 0.025 mg/kg once every 3 days with insulin, up to 6 months (p<0.0313)
  fructosamine, 6 months: statistically significant reduction
[6]; all SID/TOD test groups, 0.025 mg/kg with insulin, up to 6 months
  fasting blood glucose, fructosamine and insulin reduction rate, 6 months: improved
[7]; [8]
  Lipase: 226.8 ± 215.0 U/L
  T-Chol (total cholesterol): 261.3 ± 150.5 mg/dL
  Triglyceride: 515.2 ± 977.9 mg/dL
[7]; [9]
  Lipase: 197.3 ± 230.1 U/L
  T-Chol (total cholesterol): 327.6 ± 114.7 mg/dL
  Triglyceride: 384.9 ± 425.3 mg/dL
Human SGLT2
  inhibitory effect on human SGLT2 activity: excellent inhibitory effect
